The results in this text go back to PMC12670405, “Second-Generation AURKA-Targeting PROTACs: Structural Optimization toward in Vivo Degradation in Neuroblastoma” (Journal of Medicinal Chemistry, 2025).

Some results are limits rather than exact numbers.

Usually clearance stands for the rate of elimination divided by the concentration. One may read the Ki as a dissociation constant, usually derived from enzyme kinetics or from competition with a known ligand. In general, GI50 refers to the concentration that inhibits growth by half. As a reminder, the bioavailability is dose-corrected exposure relative to a reference, in per cent. A low value points to little systemic uptake.

Series [1] can be described thus: In vivo pharmacokinetics study. The arrangement: species or system ICR (CD-1) mice. As to conditions: for clearance / bioavailability: male, ICR (CD-1), mouse, plasma; for clearance: iv, 15 mg/kg, read-out: CLIV, mouse (in vivo systemic clearance); for clearance / CLIV, mouse (in vivo systemic clearance): IV 15 mg/kg, noncompartmental analysis; for bioavailability: mice, PO 30 mg/kg vs IV 15 mg/kg. The method, then:
Both the in vivo pharmacokinetics and in vivo pharmacodynamics studies were performed by Eurofins Pharmacology Discovery Services. All mice were provided by BioLasco Taiwan (under Charles River Laboratories Licensee). Animals were acclimated for 3 days prior to use and were confirmed to be in good health. All aspects of this work including housing, experimentation, and animal disposal were performed in general accordance with the “Guide for the Care and Use of Laboratory Animals: Eighth Edition” (National Academies Press, Washington, DC. 2011) in a AAALAC-accredited laboratory animal facility. In addition, the animal care and use protocol was reviewed and approved by the IACUC at Eurofins Pharmacology Discovery Services; IN020-08202020 and ON002-07142023.
Male ICR (CD-1) mice, weighing 30 ± 5 g, were given intravenous (IV), intraperitoneal (IP) or oral gavage (PO) administrations of PROTACs at 15 mg/kg (IV and IP) or 30 mg/kg (PO). Dosing volumes used were 5 mL/kg (IV and IP) and 10 mL/kg (PO). The test compounds were dissolved in 5% DMSO/5% Solutol HS15/90% PBS. Serial blood samples were collected at 0.05, 0.167, 0.5, 1, 2, 4, 8, 12 h postadministration (an additional 24h sample was collected for IV-administered mice). Blood samples were collected from three animals at each time point via facial vein (±50 μL) for the first time points and cardiac puncture (±300 μL) for the final time point and stored in tubes coated with lithium heparin. Within 1h of collection, samples were mixed gently and centrifuged at 2500 g for 15 min at 4 °C. Plasma samples were then harvested and kept frozen at −70 °C until further processing. Samples were processed using acetonitrile precipitation and analyzed by LC–MS/MS. Mean plasma concentrations were plotted as a function of time and the fundamental PK parameters were obtained from a noncompartmental analysis (NCA) using WinNonlin. Free drug levels (C p,u) for SK4454 and SK5527 were calculated by factoring in their plasma protein binding (f u) values using the following formula: C p,u = C p * f u.

The target of the next series is T1, CRBN (Homo sapiens, UniProt Q96SW2).
T1 construct: purchased Eurofins Discovery
T1 sequence (Q96SW2 whole entry): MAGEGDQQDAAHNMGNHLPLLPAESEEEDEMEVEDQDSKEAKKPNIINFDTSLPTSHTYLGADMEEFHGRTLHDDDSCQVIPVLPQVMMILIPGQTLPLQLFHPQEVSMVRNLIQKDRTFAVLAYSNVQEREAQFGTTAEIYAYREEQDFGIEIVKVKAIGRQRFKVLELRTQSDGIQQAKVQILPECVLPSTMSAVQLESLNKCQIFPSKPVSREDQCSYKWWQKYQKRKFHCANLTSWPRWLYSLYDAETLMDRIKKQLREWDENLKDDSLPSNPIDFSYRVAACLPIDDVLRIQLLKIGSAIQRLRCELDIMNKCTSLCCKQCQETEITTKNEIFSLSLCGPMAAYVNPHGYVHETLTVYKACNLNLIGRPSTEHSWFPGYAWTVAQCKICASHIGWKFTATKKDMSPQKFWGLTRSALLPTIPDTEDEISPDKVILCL
The series can be described thus: CRBN binding assay (E3scan, Eurofins Discovery). As to the method: (§1) AURKA, AURKB and CRBN binding assays were performed by Eurofins Discovery using the KdELECT Kinase Assay Panel (AURKA and AURKB), or the E3scan Ligand Binding Assay Technology (CRBN). More information can be found on the Eurofins Discovery Web site.
(§2) Graphs were generated using GraphPad Prism Software (version 10.1.2) or RStudio (R-4.3.2). All dose–response curves were computed on GraphPad Prism using the Variable Slope (four parameters) equation. Absolute half-maximal degradation (DC50), growth inhibitory (GI50) and enzymatic inhibitory (IC50) concentrations, as well as inhibition constants (Ki) were derived from dose–response curves via interpolation. Statistical tests were performed on GraphPad Prism and detailed in the figure legends. Unless otherwise stated, “n” in the figure legends indicates the number of independent experiments conducted at different times.

A further series concerns the target T2, AURKB (Homo sapiens, UniProt Q96GD4).
T2 construct: purchased Eurofins Discovery
The series can be described thus: AURKB binding assay (KINOMEscan / KdELECT, Eurofins Discovery). As to the method: as §1, §2

Another series deals with T3, AURKA (Homo sapiens, UniProt O14965).
T3 sequence (O14965 1-403): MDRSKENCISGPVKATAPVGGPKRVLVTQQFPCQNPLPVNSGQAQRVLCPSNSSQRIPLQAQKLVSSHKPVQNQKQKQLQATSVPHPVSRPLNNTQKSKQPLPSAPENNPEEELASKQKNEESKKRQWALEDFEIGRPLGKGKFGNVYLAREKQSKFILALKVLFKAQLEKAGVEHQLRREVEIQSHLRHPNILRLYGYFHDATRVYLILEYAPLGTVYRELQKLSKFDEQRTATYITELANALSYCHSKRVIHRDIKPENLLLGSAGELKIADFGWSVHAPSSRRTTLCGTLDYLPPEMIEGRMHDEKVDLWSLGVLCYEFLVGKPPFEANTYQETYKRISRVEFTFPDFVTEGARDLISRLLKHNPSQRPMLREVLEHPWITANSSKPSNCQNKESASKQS
The series can be described thus: AURKA binding assay (KINOMEscan / KdELECT, Eurofins Discovery). As to conditions: for binding selectivity for AURKA over AURKB: Ki AURKB vs Ki AURKA. On the set-up: purchased Eurofins Discovery. As to the method: as §1, §2

A further series relates to SK-N-SH. The series can be described thus: IncuCyte live-cell imaging, antiproliferative effect. In kind it is cell-based. As to conditions: Homo sapiens, 72 h, read-out: Cell GI50 72h. In a few lines: (§3)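 Cells seeded in 384-well plates (neuroblastoma 1200–5000, HEK293T 600 cells/well), adhered overnight, then compound-treated in duplicate or triplicate; confluency tracked by IncuCyte live-cell imaging. Normalized confluence averaged from 3 experiments; absolute GI50 interpolated from four-parameter variable-slope curves.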

The subject of another series is SJNB-8. The description is as above. The format is cell-based. As to conditions: Homo sapiens, 72 h, read-out: Cell GI50 72h, SJNB-8. The method in brief: as §3
The subject of another series is SK-N-AS. Described as above. In kind it is cell-based. As to conditions: Homo sapiens, 72 h, read-out: Cell GI50 72h. In a few lines: as §3
The subject of the next series is SK-N-BE(2)-C. Described as above. The format is cell-based, human. As to conditions: 72 h; for GI50: Homo sapiens, SK-N-BE(2)-C, read-out: Cell GI50 72h; for growth-inhibitory activity upon cotreatment with tariquidar (in words): NGP, SJNB-8 and SK-N-BE(2)-C, 1 μM tariquidar. An excerpt: Human neuroblastoma cell lines NGP, IMR-32, SJNB-8, SK-N-BE(2)-C, SJNB-1, SK-N-SH and SK-N-AS, as well as benign immortalized cell lines RPE and HEK293T were either bought commercially or obtained through research laboratories. […] Screening for mycoplasma contamination occurred routinely on the cells. Human neuroblastoma cell lines SH-SY5Y_shABCB1 & SH-SY5Y_shNTC were generated by transduction with pLKO.1-ABCB1_TRCN0000059683 shRNA (Sigma MISSION SHCLND) or pLKO.1-puro NT shRNA (Sigma MISSION SHC002) vectors respectively (Supplementary Table S6), packaged using Lenti-X293T (Clontech). Transduced cells were selected with 2 μg/mL puromycin. These cells were cultured in DMEM 4.5 g/L D-Glucose, L-Glutamine and 110 mg/L Sodium Pyruvate (Gibco, #11995065) supplemented with 10% fetal bovine serum, 1× Antibiotic-Antimycotic solution (Sigma-Aldrich, #A5955) and 1× MEM nonessential amino acids (Sigma-Aldrich, #M7145). Incubation of all cells occurred at 37 °C and 5% CO2.
Neuroblastoma cells were seeded in 384-well plates at different densities ranging from 1200 to 5000 cells/well and allowed to adhere overnight. RPE and HEK293T were seeded at 200 and 600 cells/well, respectively. Compound treatment was performed using the D300e Digital Dispenser (Tecan) in duplicate or triplicate and cell confluency was monitored over time using the IncuCyte Live-cell imaging system (Sartorius). […] Mean normalized confluences were calculated from 3 individual experiments.
All dose–response curves were computed on GraphPad Prism using the Variable Slope (four parameters) equation. Absolute half-maximal degradation (DC50), growth inhibitory (GI50) and enzymatic inhibitory (IC50) concentrations, as well as inhibition constants (Ki) were derived from dose–response curves via interpolation. Statistical tests were performed on GraphPad Prism and detailed in the figure legends. Unless otherwise stated, “n” in the figure legends indicates the number of independent experiments conducted at different times.

T2 sequence (Q96GD4 whole entry): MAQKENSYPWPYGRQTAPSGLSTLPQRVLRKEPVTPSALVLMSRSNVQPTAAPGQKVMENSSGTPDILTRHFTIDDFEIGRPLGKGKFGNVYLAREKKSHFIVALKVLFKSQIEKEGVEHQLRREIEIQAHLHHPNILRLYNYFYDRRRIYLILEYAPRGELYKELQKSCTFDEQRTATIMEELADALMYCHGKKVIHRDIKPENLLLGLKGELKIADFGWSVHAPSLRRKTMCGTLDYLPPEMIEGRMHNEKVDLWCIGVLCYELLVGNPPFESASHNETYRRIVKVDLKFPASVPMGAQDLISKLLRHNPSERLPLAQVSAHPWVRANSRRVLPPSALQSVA

For `O=C1CCC(Nc2ccc(N3CCN(C4CN(C(=O)[C@]5(Cc6cccc(Nc7nccs7)n6)CC[C@@H](Oc6cccc(Cl)c6F)CC5)C4)CC3)c(F)c2)C(=O)N1` (stereo partly drawn) [PROTAC 18], the clearance in series [1] is 23 mL/min/kg. At CRBN, this compound returned a Ki of 1210 nM.

On to `O=C1CCN(c2ccc(N3CCN(CC4CN(C(=O)[C@]5(Cc6cccc(Nc7nccs7)n6)CC[C@@H](Oc6cccc(Cl)c6F)CC5)C4)CC3)nc2)C(=O)N1` [PROTAC 23], for which the clearance in series [1] was 35 mL/min/kg.

`O=C1CCN(c2ccc(N3CCN(CC4CCN(C(=O)[C@]5(Cc6cccc(Nc7nccs7)n6)CC[C@@H](Oc6cccc(Cl)c6F)CC5)CC4)CC3)nc2)C(=O)N1` [PROTAC 24]: the results for the inhibition constant Ki on AURKB, on AURKA and on CRBN were 2390 nM, 1 nM and 4300 nM, respectively. Also, in series [1], the clearance came out at 22 mL/min/kg. For the same compound, at AURKA, the “binding selectivity for AURKA over AURKB” value is listed as “more than 2000 fold”.

Regarding `Cc1cc(Nc2ccc(F)c(CC3(C(=O)N4CC(N5CCN(c6ccc(NC7CCC(=O)NC7=O)cc6F)CC5)C4)CCN(Cc4cccc(Cl)c4F)CC3)n2)n[nH]1` (stereo not drawn) [PROTAC 29], in series [1], the clearance is 38 mL/min/kg.

Take `O=C1CCC(N2C(=O)c3cccc(OCCOCCOCCOCCNC(=O)[C@]4(Cc5cccc(Nc6nccs6)n5)CC[C@@H](Oc5cccc(Cl)c5F)CC4)c3C2=O)C(=O)N1` (stereo partly drawn) [SK2188, reference compound]: the Ki stood at 5610 nM at AURKB, 2 nM at AURKA and 273 nM at CRBN. Besides, in series [1], the clearance is 114 mL/min/kg. The GI50 in the series on SK-N-SH was determined as 1580 nM; in the series with SJNB-8, 173 nM; in the series with SK-N-AS it was 3180 nM; in the series on SK-N-BE(2)-C, 3730 nM. Also, the “binding selectivity for AURKA over AURKB” value at AURKA was “more than 2000 fold”.

As to `Cc1cc(Nc2ccc(F)c(CC3(C(=O)N4CCC(CN5CCN(c6ccc(N7CCC(=O)NC7=O)cn6)CC5)CC4)CCN(Cc4cccc(Cl)c4F)CC3)n2)n[nH]1` [SK4454], the results for the inhibition constant (Ki) at AURKB, at AURKA and at CRBN were 7640 nM, 1 nM and 4060 nM, respectively. In series [1] (listed as PROTAC 32, 15 mg/kg), the “CLIV, mouse (in vivo systemic clearance)” value was 18.1 mL/min/kg. Besides, in series [1], the clearance came out at 18 mL/min/kg. Further, in series [1], the bioavailability amounted to 7%. Further, the GI50 in the series with SK-N-SH was 430 nM; in the series with SJNB-8 it was less than 100 nM; in the series with SK-N-AS it was 994 nM; in the series with SK-N-BE(2)-C, 1110 nM. The “growth-inhibitory activity upon cotreatment with tariquidar (in words)” value in the series on SK-N-BE(2)-C is “comparable to AURKA inhibitor TAS-119”. Further, the “binding selectivity for AURKA over AURKB” value at AURKA is on record as “more than 2000 fold”.

In the case of `Cc1cc(Nc2ccc(F)c(CC3(C(=O)N4CCC(F)(CN5CCN(c6ccc(N7CCC(=O)NC7=O)cn6)CC5)CC4)CCN(Cc4cccc(Cl)c4F)CC3)n2)n[nH]1` [SK5527], the inhibition constant (Ki) was more than 10000 nM at AURKB, 2 nM on AURKA and 1130 nM at CRBN. Besides, in series [1] (listed as PROTAC 33, 15 mg/kg), the “CLIV, mouse (in vivo systemic clearance)” value was found to be 12.2 mL/min/kg. For the same compound, the clearance in series [1] amounted to 12 mL/min/kg. Besides, in series [1], the bioavailability worked out at 11%. For the same compound, the GI50 in the series on SK-N-SH was 244 nM; in the series on SJNB-8, less than 100 nM; in the series on SK-N-AS it was 654 nM; in the series with SK-N-BE(2)-C, 477 nM. Besides, the “growth-inhibitory activity upon cotreatment with tariquidar (in words)” value in the series with SK-N-BE(2)-C is listed as “comparable to AURKA inhibitor TAS-119”. Moreover, the “binding selectivity for AURKA over AURKB” value at AURKA is “more than 2000 fold”.
